Measurements published in ChEMBL document CHEMBL1142769, “A preliminary study of the metabolic stability of a series of benzoxazinone derivatives as potent neuropeptide Y5 antagonists” (Bioorg Med Chem Lett, 2005).

Experiments:
[1] = Half life period after 1 hour in Rat liver microsomes at 37 degree C an incubation concentration of 10 uM
[2] = Half life period after 1 hour in human liver microsomes at 37 degree C an incubation concentration of 10 uM
[3] = Inhibitory concentration required for Metabolic stability after 1 hour at an incubation concentration of 10 uM; format: ADME
[4] = Metabolic stability after 1 hour in Rat liver microsomes at 37 degree C an incubation concentration of 10 uM
[5] = Metabolic stability after 1 hour in human liver microsomes at 37 degree C an incubation concentration of 10 uM

Compound `O=C(CN1CCC(N2C(=O)OCc3c(F)cccc32)CC1)Nc1ccc2[nH]c3ccccc3c2c1` has a half-life at 1 h, 10 µM ([1]; liver microsomes) of 19.3 min, a half-life at 1 h, 10 µM ([2]; liver microsomes) of 95 min and an IC50 [3] of 461 nM.

For `O=C(CN1CCC(N2C(=O)OCc3ccc(Cl)cc32)CC1)Nc1ccc2sc3ccccc3c2c1`, the half-life at 1 h, 10 µM ([1]; microsomes) was 32.7 min, the half-life at 1 h, 10 µM ([2]; microsomes) was 28.4 min and the remaining at 1 h, 10 µM [4] was 24%. The remaining at 1 h, 10 µM [5] was 19.6% and the IC50 [3] was 135 nM.
